The test system of data set [1] is MOG induced EAE. Kind of data set: Laquinimod combined with teriflunomide in MOG induced EAE (Example 2). The following applies: Day 1-30; for GMS: group mean score; for MMS: mean maximal score; for % inhibition (GMS) / % inhibition (Incidence) / % inhibition (MMS): vs vehicle. The data set is classed as in vivo, mice of the C57BL/6 strain.
Data set [2] has as its system experimental autoimmune encephalomyelitis. The following applies: in mice; Merill et al., 2009; cited from earlier work.
The conditions of data set [3]: 7 mg/day and 14 mg/day; O'Connor et al. 2011; cited from earlier work.
The target of data set [4] is CYP2C9 (Homo sapiens, UniProt P11712). The conditions noted are these: O'Connor et al. 2006 and Warneke et al. 2009; cited from earlier work.
The conditions of data set [5]: animal studies; cited from earlier work.

Structures are written as SMILES.

Sequence of CYP2C9 (P11712 whole entry): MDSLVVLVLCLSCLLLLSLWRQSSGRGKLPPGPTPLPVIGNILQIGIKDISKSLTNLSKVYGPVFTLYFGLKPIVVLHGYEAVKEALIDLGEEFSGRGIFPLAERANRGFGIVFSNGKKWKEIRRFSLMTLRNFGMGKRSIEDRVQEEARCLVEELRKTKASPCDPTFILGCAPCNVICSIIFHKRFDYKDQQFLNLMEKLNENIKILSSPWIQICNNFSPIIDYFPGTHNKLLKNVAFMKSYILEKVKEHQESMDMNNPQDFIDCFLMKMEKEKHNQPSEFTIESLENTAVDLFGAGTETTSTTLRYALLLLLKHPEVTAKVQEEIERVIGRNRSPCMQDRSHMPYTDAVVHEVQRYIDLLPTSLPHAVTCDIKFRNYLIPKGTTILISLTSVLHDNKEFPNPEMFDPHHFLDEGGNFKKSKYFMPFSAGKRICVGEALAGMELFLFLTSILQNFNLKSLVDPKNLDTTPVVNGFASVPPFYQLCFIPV

Consider `CCN(C(=O)c1c(O)c2c(Cl)cccc2n(C)c1=O)c1ccccc1` [Laquinimod, 5-chloro-N-ethyl-4-hydroxy-1-methyl-2-oxo-N-phenyl-1,2-dihydroquinoline-3-carboxamide], for which, in data set [1] (Laquinimod 5 mg/kg/day gavage), the “Duration” value was found to be 5.7 ± 5.1 days, the Incidence is listed as 9/15, the Mortality is 0/15 and the “Onset” value is recorded as 20.5 ± 6.6 days. In data set [1] (Laquinimod 5 mg/kg/day gavage), the GMS is given as 1.02 ± 1.01, the MMS is on record as 1.9 ± 1.8, the “% inhibition (GMS)” value stood at 58.4% and the “% inhibition (Incidence)” value is 35.7%. Moreover, the “% inhibition (MMS)” value in data set [1] (Laquinimod 5 mg/kg/day gavage) is on record as 45.7%. Moreover, in data set [1] (Laquinimod 25 mg/kg/day gavage), the “Duration” value is recorded as 1.3 ± 3.5 days, the Incidence is given as 2/15, the Mortality is on record as 0/15 and the “Onset” value worked out at 26.3 ± 4.4 days. Further, in data set [1] (Laquinimod 25 mg/kg/day gavage), the GMS is recorded as 0.18 ± 0.52, the MMS stood at 0.4 ± 1.1, the “% inhibition (GMS)” value is 92.7% and the “% inhibition (Incidence)” value is listed as 85.7%. In addition, the “% inhibition (MMS)” value in data set [1] (Laquinimod 25 mg/kg/day gavage) is reported as 88.6%.
Turning to `C/C(O)=C(\C#N)C(=O)Nc1ccc(C(F)(F)F)cc1` [Teriflunomide, (2Z)-2-cyano-3-hydroxy-N-[4-(trifluoromethyl)phenyl]but-2-enamide], in data set [1] (Teriflunomide 3 mg/kg gavage), the “Duration” value is listed as 11.6 ± 2.3 days, the Incidence is reported as 15/15, the Mortality is 0/15 and the “Onset” value was determined as 14.0 ± 1.5 days. Also, in data set [1] (Teriflunomide 3 mg/kg gavage), the GMS turned out to be 2.34 ± 0.65, the MMS is given as 3.7 ± 0.6 and the “% inhibition (GMS)” value is 4.5%. For the same compound, in data set [1] (Teriflunomide 10 mg/kg gavage), the “Duration” value is listed as 7.5 ± 5.5 days, the Incidence is given as 12/15, the Mortality is on record as 0/15 and the “Onset” value was determined as 18.3 ± 6.4 days. Also, in data set [1] (Teriflunomide 10 mg/kg gavage), the GMS worked out at 1.40 ± 1.18, the MMS is 2.4 ± 1.7, the “% inhibition (GMS)” value is recorded as 42.9% and the “% inhibition (Incidence)” value is reported as 14.3%. Moreover, the “% inhibition (MMS)” value in data set [1] (Teriflunomide 10 mg/kg gavage) was found to be 31.4%. In addition, in data set [2], the minimal effective dose is 3 mg/kg. For the same compound, in data set [3], the “annualized relapse rate versus the placebo” value was “reduce the annualized relapse rate”. The CYP2C9 inhibition entry in data set [4] was “inhibit CYP2C9”. For the same compound, the teratogenicity result in data set [5] is “teratogenic”.

Source of the values: US20160317525A1 (Teva Pharmaceutical Industries, Ltd., priority 2013, published 2016).
